Experimental data as given in PMC6881293, “Nanomolar-potency ‘co-potentiator’ therapy for cystic fibrosis caused by a defined subset of minimal function CFTR mutants” (Scientific Reports, 2019).

Experiments:
M1101K-CFTR = target: T1, M1101K-CFTR (Homo sapiens, UniProt P13569, M1101K); experiment: Short-circuit current in FRT cells expressing M1101K-CFTR; assay type: cell-based; conditions: 20 μM forskolin, 5 µM VX-770, 20 µM ASP-11
T1 construct: expressed in transfected cells; host or cells: Fischer rat thyroid (FRT) cells; gift from Drs; Andras Rab and Jeong Hong (Emory University)
T1 sequence (P13569 whole entry M1101K): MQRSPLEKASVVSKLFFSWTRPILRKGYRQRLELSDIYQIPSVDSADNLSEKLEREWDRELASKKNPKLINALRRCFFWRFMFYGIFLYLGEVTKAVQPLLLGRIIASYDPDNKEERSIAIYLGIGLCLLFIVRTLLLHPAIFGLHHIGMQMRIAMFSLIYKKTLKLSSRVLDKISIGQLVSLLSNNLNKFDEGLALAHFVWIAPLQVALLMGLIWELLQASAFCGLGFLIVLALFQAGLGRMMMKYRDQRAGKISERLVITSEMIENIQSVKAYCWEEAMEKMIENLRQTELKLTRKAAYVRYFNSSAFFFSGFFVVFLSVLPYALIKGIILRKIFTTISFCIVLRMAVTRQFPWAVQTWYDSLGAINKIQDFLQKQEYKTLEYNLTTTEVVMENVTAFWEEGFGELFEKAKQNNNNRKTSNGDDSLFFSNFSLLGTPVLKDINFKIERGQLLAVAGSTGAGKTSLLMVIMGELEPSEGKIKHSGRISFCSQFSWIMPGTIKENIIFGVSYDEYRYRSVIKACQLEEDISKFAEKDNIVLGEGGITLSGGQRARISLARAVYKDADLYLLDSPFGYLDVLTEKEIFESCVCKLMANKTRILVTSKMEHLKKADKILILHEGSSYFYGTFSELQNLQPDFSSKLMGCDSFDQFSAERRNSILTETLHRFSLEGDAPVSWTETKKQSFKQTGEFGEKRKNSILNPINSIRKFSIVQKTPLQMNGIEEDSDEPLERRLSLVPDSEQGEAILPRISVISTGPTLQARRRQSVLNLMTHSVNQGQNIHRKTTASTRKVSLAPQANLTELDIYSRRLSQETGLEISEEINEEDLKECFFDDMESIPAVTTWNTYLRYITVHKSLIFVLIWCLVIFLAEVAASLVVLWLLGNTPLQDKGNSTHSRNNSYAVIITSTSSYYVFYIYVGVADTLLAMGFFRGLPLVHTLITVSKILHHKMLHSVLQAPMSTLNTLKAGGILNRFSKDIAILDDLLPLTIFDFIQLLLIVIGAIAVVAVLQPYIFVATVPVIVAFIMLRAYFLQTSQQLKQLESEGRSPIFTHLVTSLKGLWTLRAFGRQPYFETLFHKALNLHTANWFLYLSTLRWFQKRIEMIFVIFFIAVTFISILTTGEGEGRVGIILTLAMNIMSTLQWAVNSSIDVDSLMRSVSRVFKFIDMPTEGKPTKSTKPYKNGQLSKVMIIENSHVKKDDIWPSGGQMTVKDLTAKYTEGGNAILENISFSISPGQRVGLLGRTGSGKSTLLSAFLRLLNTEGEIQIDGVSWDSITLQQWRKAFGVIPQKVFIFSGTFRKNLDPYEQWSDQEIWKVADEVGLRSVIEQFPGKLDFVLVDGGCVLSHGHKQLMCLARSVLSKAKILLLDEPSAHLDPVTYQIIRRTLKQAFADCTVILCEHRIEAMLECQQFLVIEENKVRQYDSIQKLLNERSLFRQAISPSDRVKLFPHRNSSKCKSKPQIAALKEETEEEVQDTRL
Procedure: (§1) As shown in Fig. 1C and summarized in Fig. 2, ASP-11 acted in synergy with VX-770 to increase chloride current in FRT cells expressing the NBD2 mutations I1234del- and Q1313X-CFTR by ~3–9-fold compared to VX-770. I1234del- and Q1313X-CFTR-expressing cells were also treated with VX-809 for 24 hours (to consider the effect of available CFTR therapeutics) with 2–3-fold greater currents observed.
Figure 2 Summary of short-circuit current responses to modulators for CFTR mutants in transfected FRT cells. Responses to indicated CFTR mutants with 20 μM forskolin, 5 µM VX-770, 20 µM ASP-11 (with or without 3 µM VX-809 overnight). For reference, data shown for cells expressing wild type CFTR. Mean ± S.E.M., n = 3.
Short-circuit current was measured on cells cultured on Snapwell clear permeable supports (Corning) as described[10],[11]. Hemichambers were connected to a DVC-1000 voltage clamp (World Precision Instruments Inc., Sarasota, FL) via Ag/AgCl electrodes and 3 M KCl agar bridges for recording of the short-circuit current. For human airway epithelial cells, symmetrical HCO3^−-buffered solutions (in mM: 120 NaCl, 5 KCl, 1 MgCl2, 1 CaCl2, 5 Hepes, 25 NaHCO3, 10 glucose, pH 7.4) for basolateral and apical side were used. […]

I1234del-CFTR = target: T2, I1234del-CFTR (Homo sapiens, UniProt P13569, DEL1234-1239); experiment: Short-circuit current in FRT cells expressing I1234del-CFTR; assay type: cell-based; conditions: I1234del-CFTR FRT cells; 20 µM forskolin, 5 µM VX-770, 20 µM ASP-11; range stated jointly for I1234del- and Q1313X-CFTR
T2 construct: introduced into full-length CFTR cDNA in the vector pcDNA3.1/Zeo (+); expressed in transfected cells
T2 sequence (P13569 with tags, fused parts or gaps DEL1234-1239): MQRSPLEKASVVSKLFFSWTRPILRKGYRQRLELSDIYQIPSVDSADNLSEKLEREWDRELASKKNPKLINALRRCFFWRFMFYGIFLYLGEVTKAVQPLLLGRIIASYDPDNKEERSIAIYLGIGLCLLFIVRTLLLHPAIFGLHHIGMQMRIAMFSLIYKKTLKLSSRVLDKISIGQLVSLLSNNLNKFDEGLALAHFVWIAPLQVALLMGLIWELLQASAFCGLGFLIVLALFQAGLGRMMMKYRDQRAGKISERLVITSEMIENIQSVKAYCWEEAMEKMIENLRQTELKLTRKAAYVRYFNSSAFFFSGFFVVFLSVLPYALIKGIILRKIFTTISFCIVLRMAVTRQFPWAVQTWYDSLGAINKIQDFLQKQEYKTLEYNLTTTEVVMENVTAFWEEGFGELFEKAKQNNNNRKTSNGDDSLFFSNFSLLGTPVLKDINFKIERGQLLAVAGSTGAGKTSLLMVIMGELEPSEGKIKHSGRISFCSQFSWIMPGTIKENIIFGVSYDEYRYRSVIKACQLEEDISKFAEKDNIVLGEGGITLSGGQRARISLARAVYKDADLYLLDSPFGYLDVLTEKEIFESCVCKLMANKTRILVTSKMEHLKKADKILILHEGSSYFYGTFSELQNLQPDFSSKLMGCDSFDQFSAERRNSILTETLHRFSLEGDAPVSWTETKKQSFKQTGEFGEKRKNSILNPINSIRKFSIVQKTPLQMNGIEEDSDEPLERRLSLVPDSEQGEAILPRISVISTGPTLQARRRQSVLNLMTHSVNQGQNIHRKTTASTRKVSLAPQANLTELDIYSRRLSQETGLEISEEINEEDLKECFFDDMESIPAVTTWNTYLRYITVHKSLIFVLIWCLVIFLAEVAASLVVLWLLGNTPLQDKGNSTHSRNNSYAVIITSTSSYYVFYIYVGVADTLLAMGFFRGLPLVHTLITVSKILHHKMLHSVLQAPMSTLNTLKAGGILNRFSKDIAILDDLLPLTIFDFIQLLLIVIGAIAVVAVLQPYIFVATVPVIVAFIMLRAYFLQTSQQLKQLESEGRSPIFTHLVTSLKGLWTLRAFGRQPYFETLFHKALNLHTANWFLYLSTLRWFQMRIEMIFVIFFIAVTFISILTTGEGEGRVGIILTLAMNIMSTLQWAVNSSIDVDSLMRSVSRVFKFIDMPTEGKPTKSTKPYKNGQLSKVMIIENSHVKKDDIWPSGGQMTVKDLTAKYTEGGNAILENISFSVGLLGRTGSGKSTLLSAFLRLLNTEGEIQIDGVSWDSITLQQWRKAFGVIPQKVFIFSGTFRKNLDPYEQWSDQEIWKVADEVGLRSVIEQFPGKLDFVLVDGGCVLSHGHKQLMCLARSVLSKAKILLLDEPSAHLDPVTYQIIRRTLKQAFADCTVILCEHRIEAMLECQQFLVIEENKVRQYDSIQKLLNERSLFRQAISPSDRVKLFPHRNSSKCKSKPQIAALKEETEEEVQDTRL
Procedure: Figure 1 Co-potentiator ASP-11 activity in minimal function CFTR mutants in transfected FRT cells. (A) Structure of ASP-11. (B) Location of minimal function CFTR mutants studied herein. (C) Representative short-circuit current data in FRT cells expressing I1234del-CFTR, Q1313X-CFTR and S492F-CFTR in response to 20 µM forskolin (fsk), 5 µM VX-770, 20 µM ASP-11 and 10 μM CFTRinh-172. As indicated, cells were treated with 3 µM VX-809 for 18–24 h prior to measurements. (n = 3) (D). Representative short-circuit current data in FRT cells expressing predicted W1282X-CFTR read-through products W1282L-CFTR, W1282R-CFTR and W1282C-CFTR (without and with VX-809 pretreatment) (n = 3). MSD, membrane spanning domain; NBD, nucleotide binding domain; R, regulatory domain.
as §1
(§2) Short-circuit current was measured on cells cultured on Snapwell clear permeable supports (Corning) as described[10],[11]. […]

G551D-CFTR = test system: G551D-CFTR; set-up: method as in PMID 29903467; conditions: previously showed; cited from earlier work
N1303K-CFTR [1] = target: T3, N1303K-CFTR (Homo sapiens, UniProt P13569, N1303K); set-up: method as in PMID 30046002; conditions: prior studies; cited from earlier work
T3 construct: expressed in transfected cells
T3 sequence (P13569 whole entry N1303K): as the sequence (P13569 whole entry M1101K) above, with K1101M, N1303K counted along it

N1303K-CFTR [2] = target: T3, N1303K-CFTR; experiment: Short-circuit current in primary human bronchial epithelial cell cultures from a N1303K homozygous CF subject; assay type: cell-based
Procedure: To test the efficacy of new co-potentiators in human airway cell models, short-circuit current was measured in 16HBE14o- human airway epithelial cells in which the endogenous CFTR gene was edited to contain the N1303K mutation (16HBE-N1303Kge[21]) and in primary cultures of human bronchial epithelial cells from a N1303K homozygous CF subject. Addition of forskolin and then VX-770 to 16HBE-N1303Kge cells gave a limited response (Fig. 6A). Subsequent addition of CP-A061 or CP-D123 produced CFTRinh-172-inhibitable responses of ~10 μA/cm^2, ~6-fold greater that that produced by VX-770 alone. Increased short-circuit current was also found for these co-potentiators in the primary human bronchial epithelial cell cultures (Fig. 6B).
Figure 6 N1303K-CFTR activity in human airway epithelial cell cultures. (A) Short-circuit current in gene-edited 16HBE14o- cells expressing N1303K-CFTR. Concentrations: 20 µM amiloride, 20 µM forskolin, 5 µM VX-770, 20 µM CP-A061 and CP-D123, and 10 µM CFTRinh-172. Representative original curves (left and center) and summary of changes in current (∆Isc) (right). Mean ± S.E.M., n = 3, *P < 0.05). (B) Short-circuit current in primary cultures of human bronchial epithelial cells from a homozygous N1303K-CFTR CF subject. […]
as §2

For `CCCCn1cc(S(=O)(=O)Nc2ccc(CC)cc2)c2cccnc21` [ASP-11], the “ASP-11 effect on short-circuit current” value (M1101K-CFTR) is listed as “absence of ASP-11 effect”, the “fold increase in chloride current with ASP-11 plus VX-770 compared to VX-770 alone” value (I1234del-CFTR) is listed as 3–9 fold and the “activation of G551D-CFTR” value (G551D-CFTR) is listed as “activates G551D-CFTR”.
In the case of `CC(C)(C)c1cc(C(C)(C)C)c(NC(=O)c2c[nH]c3ccccc3c2=O)cc1O` [VX-770, ivacaftor], the “response of N1303K-CFTR to modulator” value (N1303K-CFTR [1]) is given as “not responsive”.
With `COc1ccc2[nH]c3c(c2c1)CCNC31CCN(Cc2ccc(F)cc2F)CC1` [Compound A061] the “current as equivalent of wildtype CFTR activity” value (N1303K-CFTR [2]; estimate based on similarly cultured non-CF and CF human airway epithelial cell cultures) was ~ 20% and the CFTRinh-172-inhibitable current (N1303K-CFTR [2]; primary human bronchial cell cultures, homozygous N1303K-CFTR subject, 20 µM compound after forskolin and 5 µM VX-770) was ~ 2.5 μA/cm^2.
